# Measurements as given in patent US20040044006A1, “Methods of use of quinolone compounds against pneumococcal and haemophilus bacteria” (priority 1999, published 2004).
# Read-outs that look alike come from different tables or passages of the source.
# Tests used:
# [1] = tested on: quinolone susceptible pneumococci (ciprofloxacin MICs ≦4.0 μg/ml); assay: Agar dilution MICs of 207 quinolone susceptible pneumococcal strains; assay type: cell-based, Streptococcus pneumoniae; conditions: Streptococcus pneumoniae; for MIC90: read-out: MIC90
# Method in brief: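 Agar dilution MICs by prior methods on Mueller-Hinton agar with 5% sheep blood; S. pneumoniae ATCC 49619 among QC strains each run. Isolates were recent U.S. strains plus some from South Africa, Europe and Korea.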
# [2] = tested on: penicillin susceptible and resistant pneumococcal strains (2 quinolone resistant); assay: Time-kill testing of 12 pneumococcal strains; assay type: cell-based, Streptococcus pneumoniae; conditions: for concentration at which bactericidal after 24 h: 12 penicillin susceptible and resistant pneumococcal strains, bactericidal = ≧3 log10 cfu/ml (99.9%) reduction
# Method: For time-kill studies, glass tubes containing 5 ml cation-adjusted Mueller-Hinton broth (Difco)+5% lysed horse blood with doubling antibiotic concentrations were inoculated with 5×10^5 to 5×10^6 cfu/ml and incubated at 35° C. in a shaking water bath. […] Growth controls with inoculum but no antibiotic were included with each experiment (Pankuch, et al., Antimicrob. Agents Chemother. 38:2065-2072, 1994; Pankuch, et al., Antimicrob. Agents Chemother. 40:1653-1656, 1996).
# Lysed horse blood was prepared as described previously. The bacterial inoculum was prepared by diluting a 16 h broth (medium as above) culture in the same medium. Dilutions required to obtain the correct inoculum (5×10^5-5×10^6 cfu/ml) were determined by prior viability studies using each strain (Pankuch, et al., Antimicrob. Agents Chemother. 38:2065-2072, 1994; Pankuch, et al., Antimicrob. Agents Chemother. 40: 1653-1656, 1996).
# To inoculate each tube of serially diluted antibiotic, 50 μl of diluted inoculum was delivered by pipette beneath the surface of the broth. Tubes were then vortexed and plated for viability counts within 10 min (approximately 0.2 h). The original inoculum was determined by using the untreated growth control. Only tubes containing an initial inoculum within the range of 5×10^5 to 5×10^6 cfu/ml were acceptable (Pankuch, et al., Antimicrob. Agents Chemother. 38:2065-2072, 1994; Pankuch, et al., Antimicrob. Agents Chemother. 40:1653-1656, 1996).
# Viability counts of antibiotic-containing suspensions were performed by plating ten-fold dilutions of 0.1 ml aliquots from each tube in sterile Mueller-t-Hinton broth onto trypticase soy agar 5% sheep blood agar plates (BBL). Recovery plates were incubated for up to 72 h. Colony Counts were performed on plates yielding 30-300 colonies. The lower limit of sensitivity of colony counts was 300 cfu/ml (Pankuch, et al., Antimicrob. Agents Chemother. 38:2065-2072, 1994; Pankuch, et al., Antimicrob. Agents Chemother. 40:1653-1656, 1996).
# Time-kill assays were analysed by determining the number of strains which yielded a log10 cfu/ml of −1, −2 and −3 at 0, 3, 6, 12 and 24 h, compared to counts at time 0 h. Antimicrobials were considered bactericidal at the lowest concentration that reduced the original inoculum by ≧3 log10 cfu/ml (99.9%) at each of the time periods, and bacteriostatic if the inoculum was reduced by 0-3 log10 cfu/ml. […] The problem of bacterial carryover was addressed as described previously. For macrolide time-kill testing, only strains with MICs≦4.0 μg/ml were tested (Pankuch, et al., Antimicrob. Agents Chemother. 38:2065-9072, 1994; Pankuch, et al., Antimicrob. Agents Chemother. 40:1653-1656, 1996).
# [3] = tested on: quinolone-resistant Haemophilus influenzae strains; assay: Microdilution MIC determination in HTM for quinolone-resistant Haemophilus influenzae strains; assay type: cell-based
# Method: Inocula were prepared from chocolate agar plates incubated for a full 24 hours by the direct colony suspension method as follows: In a tube of Mueller-Hinton broth (Difco), an organism suspension was made to a density of a 0.5 McFarland standard (1×10^8 CFU/ml). The latter inoculum was diluted in sterile saline such that final organisms suspensions in trays yielded colony counts of 3-8×10^5 CFU/ml. Frozen microdilution trays were obtained from MicroMedia Systems, Inc. (Cleveland, Ohio, USA). Each tray contained all antimicrobials prepared in freshly made HTM. Wells were inoculated with 100 μl suspensions and incubated in ambient air at 35° C. for 20-24 hours. The lowest drug concentration showing no growth was read as the MIC. Standard quality control strains, including H. influenzae ATCC 49766, H. influenzae ATCC 49247, Staphylococcus aureus ATCC 29213 and Escherichia coli ATCC 25922 were included with each run.
# [4] = agar dilution, Penicillin I strains
# [5] = agar dilution, Penicillin I strains, read-out: MIC range
# [6] = agar dilution, Penicillin R strains
# [7] = agar dilution, Penicillin S strains
# [8] = agar dilution, all 207 strains (64 penicillin susceptible, 68 intermediate, 75 resistant)
# [9] = 9 quinolone-resistant Haemophilus influenzae strains
# [10] = agar dilution, Penicillin R strains, read-out: MIC range
# [11] = agar dilution, Penicillin S strains, read-out: MIC range
SMILES,"MIC50 [1, 4]","MIC90 [1, 4]","MIC [1, 5]","MIC50 [1, 6]","MIC90 [1, 6]","MIC50 [1, 7]","MIC90 [1, 7]","MIC50 [1, 8]","MIC90 [1, 8]",concentration at which bactericidal after 24 h ([2]; 24 h),bactericidal activity for the two quinolone resistant pneumococcal strains [2],"MIC50 [3, 9]","MIC Range [3, 9]","MIC [1, 10]","MIC [1, 11]",further results
"CO/N=C1\CN(c2nc3c(cc2F)c(=O)c(C(=O)O)cn3C2CC2)CC1CN (racemic) [Gemifloxacin, (R,S)-7-(3-aminomethyl-4-methoxyiminopyrrolidin-1-yl)-1-cyclopropyl-6-fluoro-4-oxo-1,4-dihydro-1,8-naphthyridine-3-carboxylic acid]",0.03 mg/L,0.06 mg/L,0.008 to 0.25 mg/L,0.03 mg/L,0.06 mg/L,0.03 mg/L,0.03 mg/L,0.03 mg/L,0.06 mg/L,2 ×MIC,bactericidal at the microbroth MIC,0.25 mg/L,0.03 to 1.0 mg/L,,,"MIC ([1]; read-out: MIC range, agar dilution, Penicillin R strains): 0.004 to 0.125 mg/L; MIC ([1]; read-out: MIC range, agar dilution, Penicillin S strains): 0.008 to 0.125 mg/L; concentration at which uniformly bactericidal after 24 h ([2]; all 12 strains, 24 h): ≤ 0.5 µg/mL; MIC Range ([3]; 9 quinolone-resistant Haemophilus influenzae strains, listed as gemifloxacin): ≤ 1.0 mg/L; MIC ([3]; 9 quinolone-resistant Haemophilus influenzae strains, read-out: highest MIC): 1 mg/L; MIC ([3]; Haemophilus influenzae, read-out: MICs, strain 1, GyrA S84→L, ParC S133→A N138→S, GyrB None, ParE None): 0.03 mg/L; MIC ([3]; Haemophilus influenzae, read-out: MICs, strain 2, GyrA S84→F, ParC None, GyrB None, ParE S458→L): 0.125 mg/L; MIC ([3]; Haemophilus influenzae, read-out: MICs, strain 3, GyrA S84→L, ParC S84→I, GyrB None, ParE None): 0.125 mg/L; MIC ([3]; Haemophilus influenzae, read-out: MICs, strain 4, GyrA S84→F D88→N, ParC D83→N, GyrB None, ParE T459→S): 0.25 mg/L; MIC ([3]; Haemophilus influenzae, read-out: MICs, strain 5, GyrA S84→Y, ParC E88→K, GyrB Q468→R, ParE G405→S): 0.25 mg/L; MIC ([3]; Haemophilus influenzae, read-out: MICs, strain 6, GyrA S84→L A117→E, ParC S84→R, GyrB None, ParE D420→N): 0.5 mg/L; MIC ([3]; Haemophilus influenzae, read-out: MICs, strain 7, GyrA S84→L A117→E, ParC S84→R, GyrB None, ParE D420→N): 0.5 mg/L; MIC ([3]; Haemophilus influenzae, read-out: MICs, strain 8, GyrA S84→L A117→E, ParC S84→R, GyrB None, ParE D420→N): 0.5 mg/L"
"Cc1c(F)c(N2CCNC(C)C2)cc2c1c(=O)c(C(=O)O)cn2C1CC1 (centres unmarked) [Grepafloxacin, grepafloxacin]",0.125 mg/L,0.5 mg/L,0.03 to 0.5 mg/L,0.25 mg/L,0.5 mg/L,0.125 mg/L,0.5 mg/L,0.125 mg/L,0.5 mg/L,4 ×MIC,,1 mg/L,0.25 to 4.0 mg/L,0.03 to 0.5 mg/L,0.03 to 1 mg/L,
"C[C@@H]1CN(c2c(F)c(N)c3c(=O)c(C(=O)O)cn(C4CC4)c3c2F)C[C@H](C)N1 [Sparfloxacin, sparfloxacin]",0.5 mg/L,0.5 mg/L,0.06 to 2 mg/L,0.5 mg/L,0.5 mg/L,0.5 mg/L,1 mg/L,0.5 mg/L,0.5 mg/L,2 ×MIC,,1 mg/L,0.25 to 8.0 mg/L,0.06 to 1 mg/L,0.03 to 1 mg/L,
"N[C@@H]1[C@H]2CN(c3nc4c(cc3F)c(=O)c(C(=O)O)cn4-c3ccc(F)cc3F)C[C@@H]12 [Trovafloxacin, trovafloxacin]",0.125 mg/L,0.25 mg/L,0.016 to 1 mg/L,0.125 mg/L,0.25 mg/L,0.125 mg/L,0.25 mg/L,,0.25 mg/L,4 ×MIC,bactericidal at the microbroth MIC,1 mg/L,0.25 to 8.0 mg/L,0.03 to 0.25 mg/L,0.03 to 0.5 mg/L,
